One assay relates to UC3 and T24 cells. Nature of the assay: Incucyte caspase-3/7 apoptosis assay. Type of assay: cell-based, human. Conditions: red fluorescence over time. The protocol:
UC3 and T24 cells were plated in 96-well plates at 3,500 cell/well and allowed to attach overnight. Increasing amounts of APX2009 or APX2014 were added to each well along with 1 μM of the caspase reagent (Caspase-3/7 Red, Essen Bioscience) and then the cells were allowed to recover for 2 hours prior to beginning imaging with the Incucyte system (Essen Bioscience). Each well was imaged for phase contrast as well as red fluorescence every 2 hours for 96 hours. The Incucyte software generated movies of the cells following treatment as well as real-time imaging data with red fluorescence normalized to the percent confluency of the well.
To assay for caspase-3/7 mediated apoptosis, the increase in red fluorescence was analyzed over time following the addition of APX2009 and APX2014.

The next assay deals with multiple myeloma cells. Nature of the assay: MTS assay of multiple myeloma cells, combinations (CalcuSyn). Type of assay: cell-based. The protocol:
APX3330 in combination with chemotherapeutic Melphalan. […] Synergistic plots made using CalcuSyn software. APX3330 was either given alone or in combination with melphalan. As an indicator of DNA double stranded breaks (DSBs), the phosphorylation of histone H2AX at Ser^139 was measured with a phosphorylation-specific H2AX antibody from Upstate Cell Signaling Solutions (Waltham, Md.). Cells were treated with melphalan alone or melphalan plus APX3330. After drug treatment, exponentially growing cells were harvested, washed in cold PBS, and lysed in about 100 μL RIPA assay buffer as described above. Protein was quantified and electrophoresed in SDS gel-loading buffer on a 12% SDS-polyacrylamide gel. Mouse monoclonal anti-phosphohistone H2AX (about 1:1000) or anti-actin antibody (about 1:1000; as a loading control, LabVision Corp., NeoMarkers, Fremont, Calif.) was used to probe for protein levels as described previously. Bands were detected using a chemiluminescence kit from Roche Applied Biosciences (Indianapolis, Ind.). The bands were visualized using Bio-Rad Chemidoc XRS (Hercules, Calif.) and quantitated using Chemidoc software, Quantity One 4.6.1. […]
APX3330 in combination with Methoxyamine-multiple myeloma cells. […] Data was calculated using the CalcuSyn software which is based on the Chou-Talalay algorithm (Chou-Talalay; Advances in Enzyme Regulation 22, 27-55). […]

Assay [1] concerns VEGF release from Hey-C2, SKOV-3X, Panc1, PaCa-2 and Igrov cells. Nature of the assay: VEGF ELISA on cancer cell supernatants. The class given is cell-based, human. Particulars: normoxia and hypoxia, about 24 hrs. Here is the method:
Inhibition of VEGF release. VEGF enzyme-linked immunosorbent assay (ELISA). Various cancer cell lines were plated in a 24-well plate and treated in duplicates with for about 24 hrs in normoxic (about 21% oxygen) or hypoxic (about 2% oxygen) condition. The supernatants of cells were collected and subjected to an ELISA assay with a kit specific for human VEGF according to the manufacturer (R&D Systems, Minneapolis, Minn.) VEGF ELISA assay results were read in a 96-well format plate reader by measuring absorbance at 450 nm with correction at 540 nm. Hypoxia induced an increase in VEGF release (FIG. 2). (For FIGS. 2-7, black bars=normoxia; gray bars=hypoxia.)
VEGF ELISA Assays. Hey-C2 (ovarian cancer), SKOV-3X (ovarian cancer), Pancl (pancreatic cancer), PaCa-2 (pancreatic cancer), and Igrov (ovarian cancer) cells were plated in a 24-well plate and treated in duplicates with (RN3-3 e) at different concentrations for about 24 hrs in normoxic (about 21% oxygen) or hypoxic (about 2% oxygen) condition. The supernatants of cells were collected and subjected to an ELISA assay with a kit specific for human VEGF according to the manufacturer (R&D Systems, Minneapolis, Minn.). VEGF ELISA assay results were read in a 96-well format plate reader by measuring absorbance at 450 nm with correction at 540 nm.

The test system of another assay is pancreatic tumor cells. Nature of the assay: Annexin V/PI apoptosis assay in pancreatic tumor cells. The class given is cell-based. The protocol: APX3330 in combination with chemotherapeutic Gemcitabine. […] To analyze the cells for apoptosis, cells were plated and allowed to attach overnight. Cells were treated with APX3330 alone or with gemcitabine. Apoptosis was assayed about 24 and 48 hr following treatment. Cells were trypsinized, pelleted, washed in ice-cold PBS, and resuspended in 1× binding buffer [about 10 mmol/L HEPES/NaOH (pH 7.4), 140 mmol/L NaCl, 2.5 mmol/L CaCl2]. Apoptosis was analyzed using the Alexa Fluor 488 AnnexinV from Vybrant Apoptosis Assay kit in combination with propidium iodide (Molecular Probes, Eugene, Oreg.) as described previously Clinical Cancer Research 13, 260-267, Jan. 1, 2007. Cells that were strongly Annexin positive were considered positive for apoptosis. The samples were analyzed by flow cytometry in the Indiana University Cancer Center flow cytometry facility.
APX3330 in combination with Methoxyamine-pancreatic cells. […] To analyze the cells for apoptosis, cells were plated and allowed to attach overnight. […] Apoptosis was analyzed using the Alexa Fluor 488 Annexin V from Vybrant Apoptosis Assay kit in combination with propidium iodide (Molecular Probes, Eugene, Oreg.) as described previously Clinical Cancer Research 13, 260-267, Jan. […] The samples were analyzed by flow cytometry in the Indiana University Cancer Center flow cytometry facility.

For `CCC/C(=C\C1=C(OC)C(=O)c2ccccc2C1=O)C(=O)N(CC)CC` [APX2009, [(2E)-2-[(3-methoxy-1,4-dioxo-1,4-dihydronaphthalen-2-yl)methylidene]-N,N-diethylpentanamide]], in the assay with UC3 and T24 cells, the caspase-3/7 activation result is listed as “dose-dependent increase in caspase activation”.
Take `CCCCCCCCC/C(=C\C1=C(C)C(=O)C(OC)=C(OC)C1=O)C(=O)O` [APX3330]: in the assay on multiple myeloma cells (combination with melphalan, 72 hours), the “killing of multiple myeloma cells in combination with melphalan” value is “synergistically enhance the killing of multiple myeloma cells”. Moreover, in the assay with multiple myeloma cells (combination with methoxyamine), the “killing of multiple myeloma cells in combination with methoxyamine” value is recorded as “enhanced killing of multiple myeloma cells”. For the same compound, the VEGF release entry in assay [1] is reported as “reduced the amount of VEGF release”. Moreover, in the assay with pancreatic tumor cells (about 24 and 96 hr), the “apoptosis in combination with methoxyamine” value is recorded as “enhanced the apoptosis inducing effects of methoxyamine”. The “apoptosis in combination with gemcitabine” value in the assay on pancreatic tumor cells (gemcitabine about 0.25 μM, 24 and 48 hr) was “enhanced the apoptosis inducing effects of gemcitabine”.

The values are drawn from US11331294B2, “Benzoquinone derivative E3330 in combination with chemotherapeutic agents for the treatment of bladder cancer” (Indiana University Research and Technology Corporation, priority 2007, dated 2022).
